From PubChem BioAssay AID1648 (Sanford-Burnham Center for Chemical Genomics, 2009)
Calls of active or inactive are those of the source. How the calls were made is not given here.

Each molecule was assayed against Serine/threonine-protein kinase mTOR (Homo sapiens) (UniProt P42345) (assay: binders of mTOR FRB domain, biophysical, NMR (AID 1648)). Details: NMR binding to FRB domain, chemical shift.
Chain of Serine/threonine-protein kinase mTOR (Homo sapiens) (P42345 2015-2114): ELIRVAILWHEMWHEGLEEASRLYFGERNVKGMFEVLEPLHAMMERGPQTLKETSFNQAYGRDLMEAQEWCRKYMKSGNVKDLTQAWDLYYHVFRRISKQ
In the case of `N#Cc1ccccc1CSc1ccccn1`, the Kd was > 4 mM (inactive).
In the case of `CCOc1cccc(C(=O)c2ccc(O)c(O)c2O)c1`, the Kd was > 4 mM (inactive).
`Cn1ccnc1SCc1cc(=O)[nH]c2ccccc12` was tested, and the Kd was > 4 mM (inactive).
In the case of `NC(=O)CC1NC(=O)c2ccccc21` (stereo not given), the Kd was > 4 mM (inactive).
For `O=c1[nH]c(NCCO)nnc1Cc1ccccc1`, the Kd was > 4 mM (inactive).
In the case of `CCN1CCN(c2ncnc3c2nnn3C)CC1`, the Kd was > 4 mM (inactive).
`O=C(COc1ccccc1Cl)N1CCCC1` was tested, and the Kd was > 4 mM (inactive).
`CN1CCN(C(=O)c2cc(-c3ccccc3)on2)CC1` was tested, and the Kd was > 4 mM (inactive).
`O=C(NC1CSCC1O)c1ccccc1` (stereo not given) was tested, and the Kd was > 4 mM (inactive).
In the case of `COc1ccccc1-c1nc(-c2ccc(C)nc2OC)no1`, the Kd was > 4 mM (inactive).
With `Cc1cc(=O)c2c(O)c(C)c(O)cc2o1` the Kd was > 4 mM (inactive).
With `N#Cc1cnc(N2CCCCC2)nc1N` the Kd was > 4 mM (inactive).
In the case of `COc1ccc(S(N)(=O)=O)cc1`, the Kd was > 4 mM (inactive).
In the case of `C=C(C)[C@@H]1CC[C@]2(CO)CC[C@]3(C)[C@H](CCC4[C@@]5(C)CC[C@H](O)C(C)(C)C5CC[C@]43C)C12` (stereo not given in full), the Kd was > 4 mM (inactive).
With `Cc1ccc(NC(=O)C2CCN(S(C)(=O)=O)CC2)cc1` the Kd was > 4 mM (inactive).
In the case of `Cn1c(=O)n(-c2cccc(Cl)c2)c(=O)n1C`, the Kd was > 4 mM (inactive).
`O=c1ccc2c([nH]1)CCCC2` was tested, and the Kd was > 4 mM (inactive).
`N=c1c2c3c(sc2ncn1N)CCCC3` was tested, and the Kd was > 4 mM (inactive).
`C(=Nn1cnnc1)c1ccccc1` was tested, and the Kd was > 4 mM (inactive).
With `NC(=O)c1ccccc1N1CCCCC1` the Kd was > 4 mM (inactive).
For `O=C(O)c1cncc(-c2cccs2)c1`, the Kd was > 4 mM (inactive).
For `COc1ccc(N2C(=N)C(C)(C)NC2=O)cc1`, the Kd was > 4 mM (inactive).
With `CNCc1ccccc1` the Kd was > 4 mM (inactive).
In the case of `OCc1ccc(-c2cccs2)s1`, the Kd was > 4 mM (inactive).
`CC(=O)c1c(C)nc(-c2ccc(Cl)cc2Cl)n1O` was tested, and the Kd was > 4 mM (inactive).
In the case of `Cc1nc(-c2cccc(N)c2)cs1`, the Kd was > 4 mM (inactive).
With `NC(C(=O)O)C(O)c1ccccc1` (stereo not given) the Kd was > 4 mM (inactive).
`O=S1(=O)C=CC(N2CCCCC2)C1` (stereo not given) was tested, and the Kd was > 4 mM (inactive).
In the case of `O=C(Cc1c(F)cccc1Cl)Nc1cccnc1`, the Kd was > 4 mM (inactive).
With `O=C1c2ccccc2C(=O)N1OCc1ccccc1` the Kd was > 4 mM (inactive).
For `COc1ccc2cc3[n+](cc2c1OC)CCc1cc2c(cc1-3)OCO2`, the Kd was > 4 mM (inactive).
For `CC12CN3CC(C)(CN(C1)C3c1cccs1)C2O` (stereo not given), the Kd was > 4 mM (inactive).
In the case of `CC1=C(C(N)=O)C(c2cccs2)C(C(N)=O)=C(C)N1`, the Kd was > 4 mM (inactive).
`Cc1nnsc1C(=O)O` was tested, and the Kd was > 4 mM (inactive).
With `Cc1ccc(NC(=O)CC2NCCNC2=O)c(C)c1` (stereo not given) the Kd was > 4 mM (inactive).
For `CC1=NNC(=O)C1CCc1ccncc1` (stereo not given), the Kd was > 4 mM (inactive).
For `CCN(CC)S(=O)(=O)c1cccc2nsnc12`, the Kd was > 4 mM (inactive).
For `N#Cc1nc(-c2cccs2)oc1N1CCOCC1`, the Kd was > 4 mM (inactive).
With `O=C(O)c1ccc(-n2ccnc2)cc1` the Kd was > 4 mM (inactive).
With `O=C1NC(=S)NC(=O)C1=Cc1ccco1` the Kd was > 4 mM (inactive).
With `CC1(C)C2CC(=O)[C@]3(C)C(CC[C@@]4(C)[C@H](c5ccoc5)OC(=O)[C@H]5O[C@]543)[C@@]2(C)C(=O)C[C@H]1O` (stereo not given in full) the Kd was > 4 mM (inactive).
With `CC(=O)Nc1ccc(N2C(=O)C=CC2=O)cc1C` the Kd was > 4 mM (inactive).
With `C/C=C(\C)c1nnc(NC(=O)c2ccco2)s1` the Kd was > 4 mM (inactive).
`Cc1nc2ccccc2c(=O)n1CCCn1ccnc1` was tested, and the Kd was > 4 mM (inactive).
`COCC(=O)Nc1ccc(F)cc1F` was tested, and the Kd was > 4 mM (inactive).
With `NCC1COc2ccccc2O1` (stereo not given) the Kd was > 4 mM (inactive).
For `O=C1NC(=O)C(=Cc2cccs2)C(=O)N1`, the Kd was > 4 mM (inactive).
`NCCc1nc2ccccc2[nH]1` was tested, and the Kd was > 4 mM (inactive).
For `O=c1[nH]cc(CN2CCOCC2)c(=O)[nH]1`, the Kd was > 4 mM (inactive).
`O=C(O)c1scc2c1CCCC2` was tested, and the Kd was > 4 mM (inactive).
